Experiments:
LPCAT [1] = test: LPCAT acyl-CoA substrate specificity, Mortierella microsomal membranes; type: biochemical, Mortierella alpina; settings: for Percentage incorporation in comparison with the incorporation of oleic acid: Mortierella LPCAT, 20 nmol acyl-CoA, sn-1-palmitolysophosphatidylcholine, DTNB assay
Protocol: (§1) Mortierella cultures were harvested after 5 days and placed on ice. All further procedures were carried out at 4° C. The mycelium was suspended in 0.1 M sodium phosphate buffer (pH 7.2), comprising 0.33 M sucrose, 0.1% BSA (free from fatty acids), 1000 units of catalase/ml and 1 mM Pefabloc. The following steps were carried out as described under “preparations of microsomal membranes from cotyledons of maturing seeds of sunflower and linseed”.
(§2) LPCAT activity was determined in a continuous spectraphotometric assay in which 5,5-dithiobis-2-nitrobenzoate (DTNB) was used, and the change in absorption at 409 nm and 25° C. was monitored. The assay comprised sn-1-palmitolysophosphatidylcholine (30 nmol) as acyl acceptor, DTNB (50 nmol) and 20 nmol of one of the following acyl-CoAs: myristoyl-CoA (14:0-CoA), palmitoyl-CoA (16:0-CoA), palmitoleoyl-CoA (16:1-CoA), stearoyl-CoA (18:0-CoA), oleoyl-CoA (18:1-CoA), linoleoyl-CoA (18:2-CoA), dihomo-gamma-linolenyl-CoA (20:3-CoA) or arachidonyl-CoA (20:4-CoA) in 1 ml of 0.1 M phosphate buffer, pH 7.2. The reaction was started by addition of microsomal membrane preparation. The amount of microsomal membrane preparation added was 5 μg (Mortierella and sunflower) or 30 μg (linseed).

GPAT [2] = test: GPAT acyl-CoA substrate specificity, sunflower microsomal membranes; type: biochemical; settings: for Percentage incorporation in comparison with the incorporation of oleic acid: 0.2 mM acyl-CoA, 5 mM [14C] G3P, 5 minutes
Protocol: (§3) All the procedures were carried out at 4° C. The cotyledons of maturing sunflower seeds and linseed were harvested approximately 10 days after anthesis and suspended in 0.1 M sodium phosphate buffer (pH 7.2), comprising 0.33 M sucrose and 0.1% BSA (free from fatty acids). After comminution in a glass homogenizer, the homogenate was centrifuged for 30 minutes at 20 000×g. The supernatant was filtered through one layer of Miracloth and centrifuged for 90 minutes in an ultracentrifuge at 100 000×g. The pelleted microsomal membranes were washed with 0.1 M sodium phosphate buffer (pH 7.2) and resuspended in a small volume of buffer, using a glass homogenizer. The microsomal membrane preparations were either immediately processed or stored at −80° C.
(§4) The specificity of the GPAT was studied to verify whether the enzyme has a preference for certain acyl-CoAs, in particular to determine whether the GPAT from oil seed plants converts LCPUFA-CoAs. Microsomal membranes were incubated with 0.5 mM (Mortierella) or 0.2 mM (sunflower and linseed) of one of the following acyl-CoAs: myristoyl-CoA (14:0-CoA), palmitoyl-CoA (16:0-CoA), palmitoleoyl-CoA (16:1-CoA), stearoyl-CoA (18:0-CoA), oleoyl-CoA (18:1-CoA), linoleoyl-CoA (18:2-CoA), dihomo-gamma-linolenoyl-CoA (20:3-CoA) or arachidonyl-CoA (20:4-CoA) and 5 mM [^14C] G3P. Microsomal membranes (equivalent to 50 μg of protein in the case of sunflower and Mortierella and 150 μg of protein in the case of linseed) were added to the reaction mixture in order to start the reaction. After incubation for 5 minutes, the lipids were extracted by the method of Bligh & Dyer, and the radioactivity incorporated in complex lipids was determined.

LPCAT [3] = test: LPCAT acyl-CoA substrate specificity, sunflower microsomal membranes; type: biochemical; settings: for Percentage incorporation in comparison with the incorporation of oleic acid: 20 nmol acyl-CoA, sn-1-palmitolysophosphatidylcholine, DTNB assay
Protocol: as §3, §2

LPCAT [4] = test: LPCAT acyl-CoA substrate specificity, linseed microsomal membranes; type: biochemical; settings: for Percentage incorporation in comparison with the incorporation of oleic acid: 20 nmol acyl-CoA, sn-1-palmitolysophosphatidylcholine, DTNB assay
Protocol: as §3, §2

LPAAT [5] = test: LPAAT acyl-CoA substrate specificity, Mortierella microsomal membranes; type: biochemical, Mortierella alpina; settings: for Percentage incorporation in comparison with the incorporation of oleic acid: Mortierella LPAAT, 20 nmol acyl-CoA, sn-1-oleoyl-lysophosphatidic acid, DTNB assay
Protocol: as §1
(§5) The specificity of the LPAAT was studied in order to verify whether the enzyme has a preference for certain acyl-CoAs, in particular to determine whether the LPAAT from oil seed plants converts LCPUFA-CoAs. […] The assay comprised sn-1-oleoyl-lysophosphatidic acid (30 nmol), DTNB (50 nmol) and 20 nmol of one of the following acyl-CoAs: palmitoyl-CoA (16:0-CoA), stearoyl-CoA (18:0-CoA), oleoyl-CoA (18:1-CoA), linoleoyl-CoA (18:2-CoA), dihomo-gamma-linolenyl-CoA (20:3-CoA) or arachidonyl-CoA (20:4-CoA) in 1 ml of 0.1 M phosphate buffer, pH 7.2. […] Microsomal membranes (equivalent to 10 μg of protein in the case of Mortierella and 40 μg of protein in the case of sunflower and linseed) were added to the reaction mixture in order to start the reaction.

LPAAT [6] = test: LPAAT acyl-CoA substrate specificity, linseed microsomal membranes; type: biochemical; settings: for Percentage incorporation in comparison with the incorporation of oleic acid: 20 nmol acyl-CoA, sn-1-oleoyl-lysophosphatidic acid, DTNB assay
Protocol: as §3, §5

GPAT [7] = test: GPAT acyl-CoA substrate specificity, linseed microsomal membranes; type: biochemical; settings: for Percentage incorporation in comparison with the incorporation of oleic acid: 0.2 mM acyl-CoA, 5 mM [14C] G3P, 5 minutes
Protocol: as §3, §4

GPAT [8] = test: GPAT acyl-CoA substrate specificity, Mortierella microsomal membranes; type: biochemical, Mortierella alpina; settings: for Percentage incorporation in comparison with the incorporation of oleic acid: Mortierella GPAT, 0.5 mM acyl-CoA, 5 mM [14C] G3P, 5 minutes
Protocol: as §1, §4

LPAAT [9] = test: LPAAT acyl-CoA substrate specificity, sunflower microsomal membranes; type: biochemical; settings: for Percentage incorporation in comparison with the incorporation of oleic acid: 20 nmol acyl-CoA, sn-1-oleoyl-lysophosphatidic acid, DTNB assay
Protocol: as §3, §5

Structure (SMILES) | Percentage incorporation in comparison with the incorporation of oleic acid (LPCAT [1]) | Percentage incorporation in comparison with the incorporation of oleic acid (GPAT [2]) | Percentage incorporation in comparison with the incorporation of oleic acid (LPCAT [3]; listed as SSA Palmitoyl-CoA) | Percentage incorporation in comparison with the incorporation of oleic acid (LPCAT [4]) | Percentage incorporation in comparison with the incorporation of oleic acid (LPAAT [5]) | Percentage incorporation in comparison with the incorporation of oleic acid (LPAAT [6]) | Percentage incorporation in comparison with the incorporation of oleic acid (GPAT [7]) | Percentage incorporation in comparison with the incorporation of oleic acid (GPAT [8]) | Percentage incorporation in comparison with the incorporation of oleic acid (LPAAT [9]) | Rate of the incorporation of oleic acid (LPCAT [1]; Mortierella alpina LPCAT) | Rate of the incorporation of oleic acid (GPAT [2]) | Rate of the incorporation of oleic acid (LPCAT [3]) | Percentage incorporation in comparison with the incorporation of oleic acid (LPCAT [3]) | LPCAT activity (in words) (LPCAT [4]) | Rate of the incorporation of oleic acid (LPCAT [4]) | Rate of the incorporation of oleic acid (LPAAT [5]; Mortierella alpina LPAAT) | Rate of the incorporation of oleic acid (LPAAT [6]) | Rate of the incorporation of oleic acid (GPAT [7]) | Rate of the incorporation of oleic acid (GPAT [8]; Mortierella alpina GPAT) | Rate of the incorporation of oleic acid (LPAAT [9])
CCCCCCCCCCCCCCCC(=O)SCCNC(=O)CCNC(=O)[C@H](O)C(C)(C)COP(=O)(O)OP(=O)(O)OC[C@H]1O[C@@H](n2cnc3c(N)ncnc32)[C@H](O)[C@@H]1OP(=O)(O)O [Palmitoyl-CoA, palmitoyl-CoA] | 25% | 64% | 13% | 5% | 40% | 25% | 90% | 66% | 15% |  |  |  |  |  |  |  |  |  |  | 
CCCCCCCC/C=C\CCCCCCCC(=O)SCCNC(=O)CCNC(=O)[C@H](O)C(C)(C)COP(=O)(O)OP(=O)(O)OC[C@H]1O[C@@H](n2cnc3c(N)ncnc32)[C@H](O)[C@@H]1OP(=O)(O)O [Oleoyl-CoA, oleoyl-CoA] | 100% | 100% |  | 100% | 100% | 100% | 100% | 100% | 100% | 350 nmol/min/mg protein | 13 nmol/min/mg protein | 360 nmol/min/mg protein | 100% | converted equally efficiently | 9 nmol/min/mg protein | 51 nmol/min/mg protein | 25 nmol/min/mg protein | 6 nmol/min/mg protein | 30 nmol/min/mg protein | 28 nmol/min/mg protein
CCCCC/C=C\C/C=C\C/C=C\CCCCCCC(=O)SCCNC(=O)CCNC(=O)[C@H](O)C(C)(C)COP(=O)(O)OP(=O)(O)OC[C@H]1O[C@@H](n2cnc3c(N)ncnc32)[C@H](O)[C@@H]1OP(=O)(O)O [20:3-CoA, dihomo-gamma-linolenoyl-CoA] | 85% | 55% |  | 0% | 65% |  |  | 80% |  |  |  |  |  | no LPCAT activity was detected |  |  |  |  |  | 
CCCCCCCCCCCCCCCCCC(=O)SCCNC(=O)CCNC(=O)[C@H](O)C(C)(C)COP(=O)(O)OP(=O)(O)OC[C@H]1O[C@@H](n2cnc3c(N)ncnc32)[C@H](O)[C@@H]1OP(=O)(O)O [Stearoyl-CoA, stearoyl-CoA] | 10% | 40% |  | 15% | 36% | 30% | 65% | 50% | 14% |  |  |  | 18% |  |  |  |  |  |  | 
CCCCC/C=C\C/C=C\C/C=C\C/C=C\CCCC(=O)SCCNC(=O)CCNC(=O)[C@H](O)C(C)(C)COP(=O)(O)OP(=O)(O)OC[C@H]1O[C@@H](n2cnc3c(N)ncnc32)[C@H](O)[C@@H]1OP(=O)(O)O [Arachidonoyl-CoA, arachidonyl-CoA] | 90% | 23% |  | 0% | 65% | 19% | 5% | 75% | 18% |  |  |  | 4% | no LPCAT activity was detected |  |  |  |  |  | 
CCCCCC/C=C\CCCCCCCC(=O)SCCNC(=O)CCNC(=O)[C@H](O)C(C)(C)COP(=O)(O)OP(=O)(O)OC[C@H]1O[C@@H](n2cnc3c(N)ncnc32)[C@H](O)[C@@H]1OP(=O)(O)O [Palmitololeoyl-CoA, palmitoleoyl-CoA] | 60% |  |  | 180% | 70% | 140% |  |  | 140% |  |  |  | 90% |  |  |  |  |  |  | 
CCCCCCCCCCCCCC(=O)SCCNC(=O)CCNC(=O)[C@H](O)C(C)(C)COP(=O)(O)OP(=O)(O)OC[C@H]1O[C@@H](n2cnc3c(N)ncnc32)[C@H](O)[C@@H]1OP(=O)(O)O [Myristoyl-CoA, myristoyl-CoA] | 0% | 57% |  | 0% | 55% | 30% | 100% |  | 16% |  |  |  | 1% |  |  |  |  |  |  | 
